Key:
[1] = test system: ATF6-regulated genes Grp78 and Cat; test: ATF6 target gene induction in mouse tissues after intravenous administration (qPCR, IHC, immunoblot); conditions: in vivo, mouse heart
Method: (§1) Immunoblot analysis. NRVM were lysed and subjected to immunoblot analysis, as previously described^10. In brief, cultures were lysed with VC lysis buffer made from 20 mM Tris-HCl (pH 7.5), 150 mM NaCl, 0.1% SDS, 1% Triton X-100™, protease inhibitor cocktail (Roche Diagnostics, Indianapolis, IN) and phosphatase inhibitor cocktail (Roche Diagnostics). Samples comprising 10 μg of protein were mixed with Laemmli sample buffer, boiled, then subjected to SDS-PAGE followed by transfer onto PVDF membranes for immunoblotting. Full-length Atf6 (p90) was detected with an antibody from SAB Signalway™ Antibody (1:1000, cat #32008, College Park, MD), while active Atf6 (p50) was detected with an antibody from Proteintech™ (1:1000, cat #24169-1-AP, Rosemont, IL). […] The oxidation state of ATF6 in NRVM treated with compound 147 was analyzed by gel-shift essentially as previously described^32. […]
(§2) Malondialdehyde assay. Lipid peroxidation was determined by measuring the levels of malondialdehyde (MDA) using a TBARS assay kit (Cayman Chemical, Ann Arbor, MI) according to the manufacturer's instructions as previously described^10. […]

[2] = test system: IRE1-regulated Erdj4, PERK-regulated Atf4; test: qPCR for IRE1 and PERK target genes in mouse hearts; format: in vivo; conditions: WT or ATF6 cKO mice, 24 hours after treatment, LV
Method: as §1, §2

[3] = test system: hearts of mice that were not subjected to I/R; test: 7-day dosing protocols in mice not subjected to I/R: cardiac performance and safety; format: in vivo, mouse
Method: In vivo myocardial ischemia/reperfusion. Surgical myocardial I/R was performed as previously described^10. Briefly, mice were anesthetized with 2% isoflurane and a thoracotomy was performed to isolate the heart, after which the left anterior descending coronary artery (LAD) was ligated with a 6-0 Prolene™ suture for 30 minutes, followed by suture removal and either 24 hours or 7 days of reperfusion. Regional ischemia was confirmed by visual inspection of the discoloration of the myocardium distal of the ligation, which is characteristic of impaired blood flow. Animals assigned as shams underwent the thoracotomy surgical procedure, but weren't subjected to LAD ligation. Animals were randomly assigned to trial groups prior to outset of the experiment by a single investigator, while the surgeon and data analyst were blinded to trial assignments. Animals designated to receive either control compound or compound 147 at the time of reperfusion received 2 mg/kg of respective compounds via IV injection 5 minutes prior to release of the ligation. Twenty-four hours after reperfusion, 1% of Evans Blue was injected apically to determine the area at risk (AAR). Hearts were harvested and 1-mm sections of the hearts were stained with 1% 2,3,5-triphenyltetrazolium chloride (TTC) to measure the infarcted area (INF) as previously described^36. The AAR, INF and left ventricle area (LV) from digitized images of heart sections were analyzed using ImageJ software. […] A separate investigator analyzed the AAR, INF, and LV and was blinded to the animal trial assignments. […] Blood was placed in heparin- and EDTA-coated vacutainer (BD Vacutainer) and centrifuged at 3000 rpm for 10 minutes and plasma samples were analyzed for cardiac troponin I with a Mouse cTnI High-Sensitivity ELISA kit (Life Diagnostics, Inc.).
Hepatic triglyceride assay. Hepatic triglyceride assay was performed as previously described^39. Briefly, livers were harvested and 10 mg extracts were homogenized and analyzed for triglyceride content using the EnzyChrom Triglyceride Assay Kit™ (BioAssay Systems).
Transthoracic echocardiography. Transthoracic echocardiography was performed using an ultrasound imaging system (Vevo 2100 System™, Fujifilm VisualSonics, Toronto, Ontario, Canada) as described^40. Diastolic function was determined as previously described^33. Briefly, echocardiography coupled with pulse-wave Doppler was used to visualize transmitral flow velocities and were recorded by imaging the mitral orifice at the point of the mitral leaflets. Waveforms were recorded and analyzed for peak early- and late-diastolic transmitral flow velocities corresponding to E and A waves, respectively.
Malondialdehyde assay. Lipid peroxidation was determined by measuring the levels of malondialdehyde (MDA) using a TBARS assay kit (Cayman Chemical, Ann Arbor, MI) according to the manufacturer's instructions as previously described^10. In vivo experimental compound administration. Control compound and compound 147 were suspended to a final concentration of 0.2 mg/mL in 10% DMSO. Mice were weighed prior to administration of compounds and, subsequently, non-anesthetized 10-week old WT or ATF6 cKO mice were injected with ˜250 μL of stock compounds via the lateral tail vein depending upon body mass to ensure accurate administration of 2 mg/kg. […] Since compound 147 and tunicamycin have similar molecular weights, this dose of compound 147 is near the molar equivalent of the typical dose of tunicamycin. […]

[4] = test system: acute myocardial I/R injury; test: acute in vivo myocardial ischemia/reperfusion; parameters: species or system mouse; conditions: acute I/R protocol, 24 h
Method: In vivo myocardial ischemia/reperfusion. Surgical myocardial I/R was performed as previously described^10. Briefly, mice were anesthetized with 2% isoflurane and a thoracotomy was performed to isolate the heart, after which the left anterior descending coronary artery (LAD) was ligated with a 6-0 Prolene™ suture for 30 minutes, followed by suture removal and either 24 hours or 7 days of reperfusion. Regional ischemia was confirmed by visual inspection of the discoloration of the myocardium distal of the ligation, which is characteristic of impaired blood flow. Animals assigned as shams underwent the thoracotomy surgical procedure, but weren't subjected to LAD ligation. […] The AAR, INF and left ventricle area (LV) from digitized images of heart sections were analyzed using ImageJ software. […] A separate investigator analyzed the AAR, INF, and LV and was blinded to the animal trial assignments. […] Blood was placed in heparin- and EDTA-coated vacutainer (BD Vacutainer) and centrifuged at 3000 rpm for 10 minutes and plasma samples were analyzed for cardiac troponin I with a Mouse cTnI High-Sensitivity ELISA kit (Life Diagnostics, Inc.).
Transthoracic echocardiography. […] Diastolic function was determined as previously described^33. […] Waveforms were recorded and analyzed for peak early- and late-diastolic transmitral flow velocities corresponding to E and A waves, respectively. […]

[5] = general in vivo properties (brain penetration, tolerance)
Method: Malondialdehyde assay. Lipid peroxidation was determined by measuring the levels of malondialdehyde (MDA) using a TBARS assay kit (Cayman Chemical, Ann Arbor, MI) according to the manufacturer's instructions as previously described^10. In vivo experimental compound administration. Control compound and compound 147 were suspended to a final concentration of 0.2 mg/mL in 10% DMSO. Mice were weighed prior to administration of compounds and, subsequently, non-anesthetized 10-week old WT or ATF6 cKO mice were injected with ˜250 μL of stock compounds via the lateral tail vein depending upon body mass to ensure accurate administration of 2 mg/kg. […] Since compound 147 and tunicamycin have similar molecular weights, this dose of compound 147 is near the molar equivalent of the typical dose of tunicamycin. It is relevant to note that for compound 147, a dose of 2 mg/kg is similar to FDA-approved cardiovascular drugs, such as many angiotensin-converting enzyme (ACE) inhibitors, which are used in small-animal models at 2 mg/kg^42.

[6] = Trials 1-3, 7 days, mice without I/R

## Cc1ccc(O)c(NC(=O)CCc2ccccc2)c1 [compound 147]
[1]
  duration of ATF6-target gene induction: ~3 days
[2]
  expression levels of Erdj4 or Atf4 in hearts: no effect
[3]; [6]
  expression of pathology-associated genes Nppa, Nppb, Col1a1 or Myh7: None of the dosing protocols resulted in
  increased plasma cTnI: None of the dosing protocols resulted in
  pathological cardiac hypertrophy (heart weight to body weight): None of the dosing protocols resulted in
[3]; any of the trials, data not shown
  liver or kidney deficits (steatosis by hepatic triglyceride accumulation, glomerular filtration rate by creatinine clearance): no apparent deficits were observed
[3]; over the course of 7 days
  cardiotoxicity: does not induce cardiotoxicity
[4]
  cardiac performance, chamber size, or pathological hypertrophy by echocardiography: no effect
[5]
  blood brain barrier crossing: has the capacity to cross the blood brain barrier
  toxicity or deleterious off-target effects: does not exhibit any apparent toxicity or deleterious off-target effects

Source: patent US20240207207A1, “METHODS FOR MITIGATING AND PREVENTING PROTEOSTASIS-BASED INJURIES” (San Diego State University (SDSU) Foundation, dba San Diego …, priority 2018, published 2024)
